Source: ChEMBL document CHEMBL1201862, “PubChem BioAssay data set” (2004)
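How tested: cells in 96-well plates exposed to compound for 48 hours at five concentrations. GI50 = concentration required for 50% inhibition of growth.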 The source made the active and inactive calls. No stated cut-off is given here; in the data, active = GI50 up to about 1.1 µM and inactive = higher.

Columns and labels:
Experiment in all cases: NCI tumour cell line growth inhibition, 48 h
[1] = tested on: 786-0
[2] = tested on: A498
[3] = tested on: A549
[4] = tested on: ACHN
[5] = tested on: CAKI-1
[6] = tested on: COLO 205
[7] = tested on: DU-145
[8] = tested on: EKVX
[9] = tested on: HCC 2998
[10] = tested on: HCT-116
[11] = tested on: HCT-15
[12] = tested on: HL-60
[13] = tested on: HOP-62
[14] = tested on: HOP-92
[15] = tested on: HT-29
[16] = tested on: Hs-578T
[17] = tested on: IGROV-1
[18] = tested on: K562
[19] = tested on: KM12
[20] = tested on: LOX IMVI
[21] = tested on: M14
[22] = tested on: MCF7
[23] = tested on: MDA-MB-231
[24] = tested on: MDA-MB-435
[25] = tested on: MOLT-4
[26] = tested on: Malme-3M
[27] = tested on: NCI-H226
[28] = tested on: NCI-H23
[29] = tested on: NCI-H460
[30] = tested on: NCI-H522
[31] = tested on: NCI/ADR-RES
[32] = tested on: OVCAR-3
[33] = tested on: OVCAR-4
[34] = tested on: OVCAR-5
[35] = tested on: PC-3
[36] = tested on: RPMI-8226
[37] = tested on: RXF 393
[38] = tested on: SF-268
[39] = tested on: SF-295
[40] = tested on: SF-539
[41] = tested on: SK-MEL-28
[42] = tested on: SK-MEL-2
[43] = tested on: SK-MEL-5
[44] = tested on: SK-OV-3
[45] = tested on: SNB-19
[46] = tested on: SNB-75
[47] = tested on: SR
[48] = tested on: SW-620
[49] = tested on: T47D
[50] = tested on: TK-10
[51] = tested on: U-251
[52] = tested on: UACC-62
[53] = tested on: UO-31
[54] = tested on: CCRF-CEM
[55] = tested on: MDA-N
[56] = tested on: OVCAR-8
[57] = tested on: SN12C
[58] = tested on: UACC-257

Measured: GI50

Cc1ccc(S(=O)(=O)NC(=O)NCc2ccc(S(N)(=O)=O)cc2)cc1
> 100 µM: [11]
inactive: [1] > 100 µM | [2] > 100 µM | [3] > 100 µM | [4] > 100 µM | [5] > 100 µM | [6] > 100 µM | [7] > 100 µM | [8] > 100 µM | [9] > 100 µM | [10] > 100 µM | [12] > 100 µM | [13] > 100 µM | [14] > 100 µM | [15] > 100 µM | [16] > 100 µM | [17] > 100 µM | [18] > 100 µM | [19] > 100 µM | [20] > 100 µM | [21] > 100 µM | [22] > 100 µM | [23] > 100 µM | [24] > 100 µM | [25] > 100 µM | [26] > 100 µM | [27] > 100 µM | [28] > 100 µM | [29] > 100 µM | [30] > 100 µM | [31] > 100 µM | [32] > 100 µM | [33] > 100 µM | [34] > 100 µM | [35] > 100 µM | [36] > 100 µM | [37] > 100 µM | [38] > 100 µM | [39] > 100 µM | [40] > 100 µM | [41] > 100 µM | [42] > 100 µM | [43] > 100 µM | [44] > 100 µM | [45] > 100 µM | [46] > 100 µM | [47] > 100 µM | [48] > 100 µM | [49] > 100 µM | [50] > 100 µM | [51] > 100 µM | [52] > 100 µM | [53] > 100 µM

CCN1C(=O)CS/C1=N/NC(=O)C(O)(c1ccccc1)C1C=CC=CC1 (centres undefined)
inactive: [3] > 10 µM | [4] > 10 µM | [5] > 10 µM | [54] > 10 µM | [6] > 10 µM | [12] > 10 µM | [13] > 10 µM | [14] > 10 µM | [17] > 10 µM | [18] > 10 µM | [21] > 10 µM | [22] > 10 µM | [24] > 10 µM | [25] > 10 µM | [26] > 10 µM | [28] > 10 µM | [29] > 10 µM | [31] > 10 µM | [33] > 10 µM | [34] > 10 µM | [36] > 10 µM | [37] > 10 µM | [38] > 10 µM | [41] > 10 µM | [42] > 10 µM | [43] > 10 µM | [44] > 10 µM | [46] > 10 µM | [47] > 10 µM | [48] > 10 µM | [49] > 10 µM | [51] > 10 µM | [52] > 10 µM

N#C/N=C(/N)c1sc2nc3c(c(-c4ccc(Br)cc4)c2c1N)CCCC3
inactive: [1] 15.7 µM | [2] 16.1 µM | [3] 25.4 µM | [4] 20.6 µM | [5] 14.5 µM | [54] 9.84 µM | [6] 14.4 µM | [7] 21 µM | [9] 22.1 µM | [10] 9.02 µM | [14] 21 µM | [15] 18.5 µM | [18] 9.23 µM | [19] 21.3 µM | [20] 7.93 µM | [21] 21.8 µM | [22] 18.5 µM | [23] 20.6 µM | [24] 2.73 µM | [55] 3.42 µM | [25] 11.7 µM | [27] 15.9 µM | [28] 26.1 µM | [29] 21.1 µM | [31] 21.4 µM | [33] 3.21 µM | [34] 34.3 µM | [56] 24.8 µM | [35] 11.6 µM | [36] 17.1 µM | [37] 17.7 µM | [38] 35 µM | [39] 11.1 µM | [40] 22.1 µM | [41] 32.9 µM | [42] 13.2 µM | [43] 4.37 µM | [44] 28.1 µM | [57] 21.5 µM | [45] 33.4 µM | [47] 2.64 µM | [48] 43.7 µM | [50] 33.1 µM | [51] 24.2 µM | [58] 28.5 µM | [52] 13.9 µM | [53] 19.9 µM
10.2 µM: [11]

CC1(C)C[C@H]2C3=CC[C@@H]4[C@@]5(C)CC[C@H](O)C(C)(C)[C@@H]5CC[C@@]4(C)[C@]3(C)C[C@@H](O)[C@@]23C[C@@H]1OC3=O
inactive: [1] > 100 µM | [2] > 100 µM | [3] 72.9 µM | [4] > 100 µM | [5] > 100 µM | [54] > 100 µM | [6] 44.8 µM | [7] > 100 µM | [8] > 100 µM | [9] 96.8 µM | [10] 74 µM | [12] 37.1 µM | [13] > 100 µM | [14] > 100 µM | [15] 50.2 µM | [16] > 100 µM | [17] > 100 µM | [18] 97.1 µM | [19] 70.3 µM | [20] > 100 µM | [21] > 100 µM | [22] 59.2 µM | [23] > 100 µM | [24] > 100 µM | [25] 49.2 µM | [26] > 100 µM | [28] > 100 µM | [29] 70.3 µM | [30] 56.5 µM | [31] 72.4 µM | [32] > 100 µM | [33] 37.2 µM | [34] > 100 µM | [56] > 100 µM | [35] 68.1 µM | [36] 65.5 µM | [38] > 100 µM | [39] 74.6 µM | [40] > 100 µM | [41] > 100 µM | [42] > 100 µM | [43] 55.2 µM | [44] > 100 µM | [57] > 100 µM | [45] > 100 µM | [46] > 100 µM | [47] > 100 µM | [48] > 100 µM | [49] 56.6 µM | [50] > 100 µM | [51] > 100 µM | [58] > 100 µM | [52] > 100 µM | [53] > 100 µM
> 100 µM: [11]
